Our source for the IC50 values is patent US12522607B2, “Substituted pyrazolo[3,4-d]pyrimidines as wee-1 inhibitors” (WIGEN BIOMEDICINE TECHNOLOGY (SHANGHAI) CO., LTD., priority 2020, dated 2026).

One experiment deals with T1, Wee-1 kinase (Homo sapiens, UniProt P30291).
T1 construct: purchased Invitrogen
Description: Inhibitory activity against Wee-1 kinase (Lanthra Screen Wee-1 kinase kit, Tracer 178). It is filed as binding. The note with it: Wee-1 kinase 5 nM, Tracer 178 50 nM, 1 h room temperature. An outline of the steps: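 Compound gradient in DMSO mixed with 5 nM Wee-1, 2 nM Eu-anti-GST antibody and 50 nM Tracer 178 (all final). Read after one hour at room temperature; IC50 calculated against the DMSO solvent control.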

The test system of the next experiment is HT29 cells. Briefly: Antiproliferative activity against HT29 cells (Cell Titer-Lumi, ATP content). The format is cell-based. The note with it: Homo sapiens, HT-29, 72 after compound addition, read-out: HT-29 cells Anti-proliferative activity (IC50 for the inhibition against HT-29 cell growth). An outline of the steps: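 Growth inhibition IC50 derived from luminescent ATP content after 72 (units as printed) of compound exposure over a dilution gradient. Seeding density 3000 cells per well; compound added once cells had adhered overnight.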

T1 sequence (P30291 whole entry): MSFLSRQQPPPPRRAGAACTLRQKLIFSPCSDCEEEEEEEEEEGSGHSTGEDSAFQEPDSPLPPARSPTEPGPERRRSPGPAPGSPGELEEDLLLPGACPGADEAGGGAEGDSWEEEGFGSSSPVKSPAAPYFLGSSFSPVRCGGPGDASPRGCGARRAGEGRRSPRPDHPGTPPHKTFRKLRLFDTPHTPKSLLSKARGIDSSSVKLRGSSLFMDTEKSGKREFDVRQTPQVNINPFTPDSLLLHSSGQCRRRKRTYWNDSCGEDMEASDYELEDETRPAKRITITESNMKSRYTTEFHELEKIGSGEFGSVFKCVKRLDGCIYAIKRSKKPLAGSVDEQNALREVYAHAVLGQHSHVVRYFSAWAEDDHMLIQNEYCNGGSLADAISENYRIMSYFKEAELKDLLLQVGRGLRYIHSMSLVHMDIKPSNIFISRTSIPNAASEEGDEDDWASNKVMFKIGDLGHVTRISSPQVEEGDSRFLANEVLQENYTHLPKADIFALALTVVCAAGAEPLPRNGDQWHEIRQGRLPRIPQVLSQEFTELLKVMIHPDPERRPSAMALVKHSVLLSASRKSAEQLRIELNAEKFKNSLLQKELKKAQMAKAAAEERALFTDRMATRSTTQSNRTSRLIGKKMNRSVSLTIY

`C=CCn1c(=O)c2cnc(Nc3cc(N4CCC(N(C)C)CC4)c4cc[nH]c4c3)nc2n1-c1ccc(=O)n(C(C)C)n1` [Compound 254]: the values for the IC50 at Wee-1 kinase and in the experiment with HT29 cells were no more than 30 nM and no more than 1000 nM, respectively.
Consider `C=CCn1c(=O)c2cnc(Nc3cc(N4CCN(C)CC4)c4ccn(C)c4c3)nc2n1-c1ccc(=O)n(C(C)C)n1` [Compound 255], for which the IC50 (in general, the concentration needed to halve the response being measured) was no more than 30 nM on Wee-1 kinase and no more than 1000 nM in the experiment on HT29 cells.
Taken in the same sequence, the figures for `C=CCn1c(=O)c2cnc(Nc3cc(N4CCN(C(C)C)CC4)c4ccn(C)c4c3)nc2n1-c1ccc(=O)n(C(C)C)n1` [Compound 256] were no more than 30 nM and no more than 1000 nM.
The like results for `C=CCn1c(=O)c2cnc(Nc3cc(N4CCC(N(C)C)CC4)c4ccn(C)c4c3)nc2n1-c1ccc(=O)n(C(C)C)n1` [Compound 257] were, in that order, no more than 30 nM and no more than 1000 nM.
Turning to `C=CCn1c(=O)c2cnc(Nc3cc(N4CCN(C)CC4)c4ccn(C5CC5)c4c3)nc2n1-c1ccc(=O)n(C(C)C)n1` [Compound 258], the figures for the IC50 against Wee-1 kinase and in the experiment with HT29 cells were no more than 30 nM and no more than 1000 nM, respectively.
Taken in the same sequence, the figures for `C=CCn1c(=O)c2cnc(Nc3cc(N4CCN(C(C)C)CC4)c4ccn(C5CC5)c4c3)nc2n1-c1ccc(=O)n(C(C)C)n1` [Compound 259] were no more than 30 nM and no more than 1000 nM.
For `C=CCn1c(=O)c2cnc(Nc3cc(N4CCC(N(C)C)CC4)c4ccn(C5CC5)c4c3)nc2n1-c1ccc(=O)n(C(C)C)n1` [Compound 260], the IC50 against Wee-1 kinase is no more than 30 nM; with HT29 cells, no more than 1000 nM.
Taken in the same sequence, the figures for `C=CCn1c(=O)c2cnc(Nc3ccc4c(N5CCN(C)CC5)c[nH]c4c3)nc2n1-c1ccc(=O)n(C(C)C)n1` [Compound 261] were no more than 30 nM and no more than 1000 nM.
Taken in the same sequence, the figures for `C=CCn1c(=O)c2cnc(Nc3ccc4c(N5CCN(C(C)C)CC5)c[nH]c4c3)nc2n1-c1ccc(=O)n(C(C)C)n1` [Compound 262] were no more than 30 nM and no more than 1000 nM.
The like results for `C=CCn1c(=O)c2cnc(Nc3ccc4c(N5CCC(N(C)C)CC5)c[nH]c4c3)nc2n1-c1ccc(=O)n(C(C)C)n1` [Compound 263] were, in that order, no more than 30 nM and no more than 1000 nM.
For the compound `C=CCn1c(=O)c2cnc(Nc3ccc4c(N5CCN(C)CC5)cn(C)c4c3)nc2n1-c1ccc(=O)n(C(C)C)n1` [Compound 264], the figures for the IC50 at Wee-1 kinase and in the experiment with HT29 cells were no more than 30 nM and no more than 1000 nM, respectively.
Take `C=CCn1c(=O)c2cnc(Nc3ccc4c(N5CCN(C(C)C)CC5)cn(C)c4c3)nc2n1-c1ccc(=O)n(C(C)C)n1` [Compound 265]: the IC50 at Wee-1 kinase was no more than 30 nM; in the experiment with HT29 cells it was no more than 1000 nM.
The like results for `C=CCn1c(=O)c2cnc(Nc3ccc4c(N5CCC(N(C)C)CC5)cn(C)c4c3)nc2n1-c1ccc(=O)n(C(C)C)n1` [Compound 266] were, in that order, no more than 30 nM and no more than 1000 nM.
Taken in the same sequence, the figures for `C=CCn1c(=O)c2cnc(Nc3ccc4c(C5CCN(C)CC5)c[nH]c4c3)nc2n1-c1ccc(=O)n(C(C)C)n1` [Compound 267] were no more than 30 nM and no more than 1000 nM.
Taken in the same sequence, the figures for `C=CCn1c(=O)c2cnc(Nc3ccc4c(C5CCN(C(C)C)CC5)cn(C)c4c3)nc2n1-c1ccc(=O)n(C(C)C)n1` [Compound 268] were no more than 30 nM and no more than 1000 nM.
For the compound `C=CCn1c(=O)c2cnc(Nc3ccc4c(ccn4C4CCNCC4)c3)nc2n1-c1ccc(=O)n(C(C)C)n1` [Compound 269], the IC50 against Wee-1 kinase is no more than 30 nM; with HT29 cells, no more than 1000 nM.
Taken in the same sequence, the figures for `C=CCn1c(=O)c2cnc(Nc3ccc4c(ccn4C4CCN(C)CC4)c3)nc2n1-c1ccc(=O)n(C(C)C)n1` [Compound 270] were no more than 30 nM and no more than 1000 nM.
Take `C=CCn1c(=O)c2cnc(Nc3ccc4c(ccn4C4CCN(C(C)C)CC4)c3)nc2n1-c1ccc(=O)n(C(C)C)n1` [Compound 271]: the IC50 against Wee-1 kinase was no more than 30 nM; in the experiment on HT29 cells, no more than 1000 nM.
For the compound `Cc1cc(Nc2ncc3c(=O)n(C4CC4)n(-c4ccc(=O)n(C(C)C)n4)c3n2)ccc1N1CCN(C)CC1` [Compound 272], the figures for the IC50 against Wee-1 kinase and with HT29 cells were no more than 30 nM and no more than 1000 nM, respectively.
The like results for `Cc1cc(Nc2ncc3c(=O)n(C4CC4)n(-c4ccc(=O)n(C(C)C)n4)c3n2)ccc1C1CCN(C)CC1` [Compound 273] were, in that order, no more than 30 nM and no more than 1000 nM.
The like results for `CC(C)n1nc(-n2c3nc(Nc4ccc5c(c4)CN(C)CC54CC4)ncc3c(=O)n2C2CC2)ccc1=O` [Compound 274] were, in that order, no more than 30 nM and no more than 1000 nM.
Taken in the same sequence, the figures for `CCn1c(=O)c2cnc(Nc3ccc(N4CCN(C)CC4)c(C)c3)nc2n1-c1ccc(=O)n(C(C)C)n1` [Compound 275] were no more than 30 nM and no more than 1000 nM.
With `CCn1c(=O)c2cnc(Nc3ccc(C4CCN(C)CC4)c(C)c3)nc2n1-c1ccc(=O)n(C(C)C)n1` [Compound 276], the IC50 on Wee-1 kinase is no more than 30 nM; with HT29 cells, no more than 1000 nM.
The like results for `CCn1c(=O)c2cnc(Nc3ccc4c(c3)CN(C)CC43CC3)nc2n1-c1ccc(=O)n(C(C)C)n1` [Compound 277] were, in that order, no more than 30 nM and no more than 1000 nM.
Taken in the same sequence, the figures for `Cc1cc(Nc2ncc3c(=O)n(C(C)C)n(-c4ccc(=O)n(C(C)C)n4)c3n2)ccc1N1CCN(C)CC1` [Compound 278] were no more than 30 nM and no more than 1000 nM.
In the case of `Cc1cc(Nc2ncc3c(=O)n(C(C)C)n(-c4ccc(=O)n(C(C)C)n4)c3n2)ccc1C1CCN(C)CC1` [Compound 279], the IC50 is no more than 30 nM against Wee-1 kinase and no more than 1000 nM in the experiment with HT29 cells.
With `CC(C)n1nc(-n2c3nc(Nc4ccc5c(c4)CN(C)CC54CC4)ncc3c(=O)n2C(C)C)ccc1=O` [Compound 280], the IC50 was no more than 30 nM against Wee-1 kinase and no more than 1000 nM in the experiment on HT29 cells.
The like results for `C=CCn1c(=O)c2cnc(Nc3ccc(N4CCN(C)CC4)c(C)c3)nc2n1-c1ccc(=O)n(C(C)(C)C)n1` [Compound 281] were, in that order, no more than 30 nM and no more than 1000 nM.
Taken in the same sequence, the figures for `C=CCn1c(=O)c2cnc(Nc3ccc(C4CCN(C)CC4)c(C)c3)nc2n1-c1ccc(=O)n(C(C)(C)C)n1` [Compound 282] were no more than 30 nM and no more than 1000 nM.
For the compound `C=CCn1c(=O)c2cnc(Nc3ccc4c(c3)CN(C)CC43CC3)nc2n1-c1ccc(=O)n(C(C)(C)C)n1` [Compound 283], the IC50 on Wee-1 kinase is no more than 30 nM; with HT29 cells, no more than 1000 nM.
The like results for `CCn1c(=O)c2cnc(Nc3ccc(N4CCN(C)CC4)cc3)nc2n1-c1ccc(=O)n(C(C)(C)C)n1` [Compound 284] were, in that order, no more than 30 nM and no more than 1000 nM.
Taken in the same sequence, the figures for `CCn1c(=O)c2cnc(Nc3ccc(N4CCN(C)CC4)c(C)c3)nc2n1-c1ccc(=O)n(C(C)(C)C)n1` [Compound 285] were no more than 30 nM and no more than 1000 nM.
As to `CCn1c(=O)c2cnc(Nc3ccc(C4CCN(C)CC4)c(C)c3)nc2n1-c1ccc(=O)n(C(C)(C)C)n1` [Compound 286], the IC50 is no more than 30 nM at Wee-1 kinase and no more than 1000 nM with HT29 cells.
Taken in the same sequence, the figures for `CCn1c(=O)c2cnc(Nc3ccc4c(c3)CN(C)CC43CC3)nc2n1-c1ccc(=O)n(C(C)(C)C)n1` [Compound 287] were no more than 30 nM and no more than 1000 nM.
As for `CC(C)n1c(=O)c2cnc(Nc3ccc(N4CCN(C)CC4)cc3)nc2n1-c1ccc(=O)n(C(C)(C)C)n1` [Compound 288], the figures for the concentration for half-maximal inhibition (IC50) against Wee-1 kinase and with HT29 cells were no more than 30 nM and no more than 1000 nM, respectively.
The like results for `Cc1cc(Nc2ncc3c(=O)n(C(C)C)n(-c4ccc(=O)n(C(C)(C)C)n4)c3n2)ccc1N1CCN(C)CC1` [Compound 289] were, in that order, no more than 30 nM and no more than 1000 nM.
Taken in the same sequence, the figures for `Cc1cc(Nc2ncc3c(=O)n(C(C)C)n(-c4ccc(=O)n(C(C)(C)C)n4)c3n2)ccc1C1CCN(C)CC1` [Compound 290] were no more than 30 nM and no more than 1000 nM.
Taken in the same sequence, the figures for `CC(C)n1c(=O)c2cnc(Nc3ccc4c(c3)CN(C)CC43CC3)nc2n1-c1ccc(=O)n(C(C)(C)C)n1` [Compound 291] were no more than 30 nM and no more than 1000 nM.
Turning to `CN1CCN(c2ccc(Nc3ncc4c(=O)n(C5CC5)n(-c5ccc(=O)n(C(C)(C)C)n5)c4n3)cc2)CC1` [Compound 292], the IC50 on Wee-1 kinase was no more than 30 nM; with HT29 cells, no more than 1000 nM.
Consider `Cc1cc(Nc2ncc3c(=O)n(C4CC4)n(-c4ccc(=O)n(C(C)(C)C)n4)c3n2)ccc1N1CCN(C)CC1` [Compound 293], for which the IC50 is no more than 30 nM against Wee-1 kinase and no more than 1000 nM with HT29 cells.
The like results for `Cc1cc(Nc2ncc3c(=O)n(C4CC4)n(-c4ccc(=O)n(C(C)(C)C)n4)c3n2)ccc1C1CCN(C)CC1` [Compound 294] were, in that order, no more than 30 nM and no more than 1000 nM.
Taken in the same sequence, the figures for `CN1Cc2cc(Nc3ncc4c(=O)n(C5CC5)n(-c5ccc(=O)n(C(C)(C)C)n5)c4n3)ccc2C2(CC2)C1` [Compound 295] were no more than 30 nM and no more than 1000 nM.
The like results for `C=CCn1c(=O)c2cnc(Nc3ccc(N4CCN(C)CC4)c(C)c3)nc2n1-c1ccc(=O)n(C(C)C)c1` [Compound 296] were, in that order, no more than 30 nM and no more than 1000 nM.
On to `C=CCn1c(=O)c2cnc(Nc3ccc(C4CCN(C)CC4)c(C)c3)nc2n1-c1ccc(=O)n(C(C)C)c1` [Compound 297], for which the concentration for half-maximal inhibition (IC50) at Wee-1 kinase was no more than 30 nM; in the experiment on HT29 cells, no more than 1000 nM.
Taken in the same sequence, the figures for `C=CCn1c(=O)c2cnc(Nc3ccc4c(c3)CN(C)CC43CC3)nc2n1-c1ccc(=O)n(C(C)C)c1` [Compound 298] were no more than 30 nM and no more than 1000 nM.
Taken in the same sequence, the figures for `CCn1c(=O)c2cnc(Nc3ccc(N4CCN(C)CC4)cc3)nc2n1-c1ccc(=O)n(C(C)C)c1` [Compound 299] were no more than 30 nM and no more than 1000 nM.
The like results for `CCn1c(=O)c2cnc(Nc3ccc(N4CCN(C)CC4)c(C)c3)nc2n1-c1ccc(=O)n(C(C)C)c1` [Compound 300] were, in that order, no more than 30 nM and no more than 1000 nM.
